Assay results: US20230203004A1, “RSV INHIBITING 3-SUBSTITUTED QUINOLINE AND CINNOLINE DERIVATIVES” (Janssen Sciences Ireland Unlimited Company, priority 2020, published 2023)

Key:
[1] = tested on: rgRSV224 virus; experiment: Antiviral activity: rgRSV224 (GFP) replication in HeLa cells; type: cell-based, respiratory syncytial virus (RSV); conditions: human respiratory syncytial virus, HeLa, 72 h, read-out: RSV HELA EC50, HeLa cells, rgRSV224 MOI = 1, GFP expression three days post-virus exposure; averaged data of several repeat experiments
Procedure: (§1) Black 384-well clear-bottom microtiter plates (Corning, Amsterdam, The Netherlands) were filled via acoustic drop ejection using the echo liquid handler (Labcyte, Sunnyvale, California). 200 nL of compound stock solutions (100% DMSO) were transferred to the assay plates. 9 serial 4-fold dilutions of compound were made, creating per quadrant the same compound concentration. The assay was initiated by adding 10 µL of culture medium to each well (RPMI medium without phenol red, 10% FBS-heat inactivated, 0.04% gentamycin (50 mg/mL). All addition steps are done by using a multidrop dispenser (Thermo Scientific, Erembodegem, Belgium). Next, rgRSV224 virus (MOI = 1) diluted in culture medium was added to the plates. rgRSV224 virus is an engineered virus that includes an additional GFP gene (Hallak LK, Spillmann D, Collins PL, Peeples ME. Glycosaminoglycan sulfation requirements for respiratory syncytial virus infection; Journal of virology (2000), 74(22), 10508-13) and was in-licensed from the NIH (Bethesda, MD, USA). Finally, 20 µL of a HeLa cell suspension (3,000 cells/well) were plated. Medium, virus- and mock-infected controls were included in each test. The wells contain […] DMSO per volume. Cells were incubated at 37° C. in a 5% CO2 atmosphere. Three days post-virus exposure, viral replication was quantified by measuring GFP expression in the cells by an in house developed MSM laser microscope (Tibotec, Beerse, Belgium). The EC50 was defined as the 50% inhibitory concentration for GFP expression. In parallel, compounds were incubated for three days in a set of white 384-well microtiter plates (Corning) and the cytotoxicity of compounds in HeLa cells was determined by measuring the ATP content of the cells using the ATPlite kit (Perkin Elmer, Zaventem, Belgium) according to the manufacturer’s instructions. The CC50 was defined as the 50% concentration for cytotoxicity.

[2] = Cytotoxicity in HeLa cells (ATP content, ATPlite kit); type: cell-based; conditions: human, TOX HELA CC50
Procedure: as §1

Row | Structure (SMILES) | EC50 [1] [µM] | CC50 at 3 days [2] [µM]
1 | COc1cc(C(=O)NC[C@](O)(c2cc(C(C)(C)O)c(F)c(-c3ccc(F)cc3)n2)C(F)F)cc2cc(C3CC3)nnc12 [compound 293, (-)Cyclopropyl-N-(3,3-Difluoro-2-(5-Fluoro-6-(4-Fluorophenyl)-4-(2-Hydroxypropan-2-yl)Pyridin-2-yl)-2-Hydroxypropyl)-8-Methoxycinnoline-6-Carboxamide] | 0.011 | 15
2 | COc1cc(C(=O)NC[C@](O)(c2cc(C(C)(C)O)cc(-c3ccc(F)cc3)n2)C(C)(F)F)cc2cc(C)nnc12 [compound 309, (-)-N-(3,3-difluoro-2-(6-(4-fluorophenyl)-4-(2-hydroxypropan-2-yl)pyridin-2-yl)-2-hydroxybutyl)-8-methoxy-3-methylcinnoline-6-carboxamide] | 0.011 | 34
3 | COc1cc(C(=O)NC[C@](O)(c2cc(C(C)(C)O)c(Cl)c(-c3ccc(F)cc3)n2)C2CC2)cc2cc(C(F)(F)F)cnc12 [compound 331] | 0.0038 | 14
4 | COc1cc(C(=O)NC[C@](O)(c2cc(C(C)(C)O)c(F)c(-c3ccc(F)cc3)n2)C(F)(F)F)cc2cc(C(F)(F)F)cnc12 [compound 326, (-)(Trifluoromethyl)-8-Methoxy-N-(3,3,3-Trifluoro-2-(5-Fluoro-6-(4-Fluorophenyl)-4-(2-Hydroxypropan-2-yl)Pyridin-2-yl)-2-Hydroxypropyl)Quinoline-6-Carboxamide] | 0.026 | 13
5 | COc1cc(C(=O)NC[C@](O)(c2cc(C(C)(C)O)c(F)c(-c3ccc(F)cc3)n2)C(C)(F)F)cc2cc(C)nnc12 [compound 313, (-)-N-(3,3-difluoro-2-(5-fluoro-6-(4-fluorophenyl)-4-(2-hydroxypropan-2-yl)pyridin-2-yl)-2-hydroxybutyl)-8-methoxy-3-methylcinnoline-6-carboxamide] | 0.001 | 42
6 | COc1cc(C(=O)NC[C@@](O)(c2cc(C(C)(C)O)c(F)c(-c3ccc(F)cc3)n2)C(F)(F)F)cc2cc(C)nnc12 [compound 334, (+)Methoxy-3-Methyl-N-(3,3,3-Trifluoro-2-(5-Fluoro-6-(4-Fluorophenyl)-4-(2-Hydroxypropan-2-yl)Pyridin-2-yl)-2-Hydroxypropyl)Cinnoline-6-Carboxamide] | 0.245 | 17
7 | COc1cc(C(=O)NC[C@@](O)(c2cc(C(C)(C)O)c(F)c(-c3ccc(F)cc3)n2)C2CC2)cc2cc(C)nnc12 [compound 275] | 0.097 | 17
8 | COc1cc(C(=O)NC[C@](O)(c2cc(C(C)(C)O)c(F)c(-c3ccc(F)cc3)n2)C2CC2)cc2cc(C3CC3)cnc12 [compound 332, (-)Cyclopropyl-N-(2-Cyclopropyl-2-(5-Fluoro-6-(4-Fluorophenyl)-4-(2-Hydroxypropan-2-yl)Pyridin-2-yl)-2-Hydroxyethyl)-8-Methoxyquinoline-6-Carboxamide] | 0.033 | 14
9 | Cc1cc2cc(C(=O)NC[C@](O)(c3cc(C(C)(C)O)c(Cl)c(-c4ccc(F)cc4)n3)C3CC3)cc(OC3CC3)c2nn1 [compound 264, (-)-N-{2-[5-Chloro-6-(4-Fluorophenyl)-4-(2-Hydroxypropan-2-yl)Pyridin-2-yl]-2-Cyclopropyl-2-Hydroxyethyl}-8-(Cyclopropyloxy)-3-Methylcinnoline-6-Carboxamide] | 0.00087 | 32
10 | COc1cc(C(=O)NC[C@](C)(O)c2cc(C(C)(C)O)c(Cl)c(-c3ccc(F)cc3)n2)cc2cc(C)nnc12 [compound 229, (-)-N-{2-[5-Chloro-6-(4-Fluorophenyl)-4-(2-Hydroxypropan-2-yl)Pyridin-2-yl]-2-Hydroxypropyl}-8-Methoxy-3-Methylcinnoline-6-Carboxamide] | 0.00081 | 44
11 | COc1cc(C(=O)NC[C@@](O)(c2nc(-c3ccc(F)cc3)c(F)c(C(C)(C)NC(C)=O)c2F)C(F)(F)F)cc2cc(C)nnc12 [compound 242, (+)-N-{2-[4-(2-Acetamidopropan-2-yl)-3,5-Difluoro-6-(4-Fluorophenyl)Pyridin-2-yl]-3,3,3-Trifluoro-2-Hydroxypropyl}-8-Methoxy-3-Methylcinnoline-6-Carboxamide] | 0.17 | 48
12 | COc1cc(C(=O)NC[C@](O)(c2cc(C(C)(C)NS(C)(=O)=O)c(F)c(-c3ccc(F)cc3)n2)C(F)(F)F)cc2cc(C)nnc12 [compound 237, (-)Methoxy-3-Methyl-N-{3,3,3-Trifluoro-2-[5-Fluoro-6-(4-Fluorophenyl)-4-{2-[(MethaneSulfonyl)Amino]propan-2-yl}Pyridin-2-yl]-2-Hydroxypropyl}Cinnoline-6-Carboxamide] | 0.0051 | 51
13 | COc1cc(C(=O)NC[C@](O)(c2nc(-c3ccc(F)cc3)c(F)c(C(C)(C)O)c2F)C(F)(F)F)cc2cc(C)c(F)nc12 [compound 211, (-)-N-{2-[3,5-Difluoro-6-(4-Fluorophenyl)-4-(2-Hydroxypropan-2-yl)Pyridin-2-yl]-3,3,3-Trifluoro-2-Hydroxypropyl}-2-Fluoro-8-Methoxy-3-Methylquinoline-6-Carboxamide] | 0.0028 | 29
14 | COc1cc(C(=O)NC[C@](O)(c2cc(C(C)(C)O)c(F)c(-c3ccc(F)c(F)c3)n2)C(F)(F)F)cc2cc(C)nnc12 [compound 239, (-)-N-{2-[6-(3,4-Difluorophenyl)-5-Fluoro-4-(2-Hydroxypropan-2-yl)Pyridin-2-yl]-3,3,3-Trifluoro-2-Hydroxypropyl}-8-Methoxy-3-Methylcinnoline-6-Carboxamide] | 0.0005 | 19
15 | Cc1cc2cc(C(=O)NC[C@](O)(c3cc(C(C)(C)O)c(F)c(-c4ccc(F)cc4)n3)C3CC3)cc(OC3CC3)c2nn1 [compound 265, (-)-N-{2-Cyclopropyl-2-[5-Fluoro-6-(4-Fluorophenyl)-4-(2-Hydroxypropan-2-yl)Pyridin-2-yl]-2-Hydroxyethyl}-8-(Cyclopropyloxy)-3-Methylcinnoline-6-Carboxamide] | 0.00069 | 39
16 | COc1cc(C(=O)NC[C@](O)(c2cc(C(C)(C)O)c(F)c(-c3ccc(F)cc3)n2)C2CC2)cc2cc(C)cnc12 [compound 206] | 0.00046 | 15
17 | COc1cc(C(=O)NC[C@](O)(c2cc(C(C)(C)O)c(F)c(-c3ccc(C(F)(F)F)cc3)n2)C(F)(F)F)cc2cc(C)nnc12 [compound 274, (-)Methoxy-3-Methyl-N-(3,3,3-Trifluoro-2-(5-Fluoro-4-(2-Hydroxypropan-2-yl)-6-(4-(Trifluoromethyl)Phenyl)pyridin-2-yl)-2-Hydroxypropyl)Cinnoline-6-Carboxamide] | 0.00148 | 11
18 | Cc1cc2cc(C(=O)NC[C@](O)(c3cc(C(C)(C)O)c(F)c(-c4ccc(F)cc4)n3)C(F)F)cc(OC3CC3)c2nn1 [compound 308, (-)Cyclopropoxy-N-(3,3-Difluoro-2-(5-Fluoro-6-(4-Fluorophenyl)-4-(2-Hydroxypropan-2-yl)Pyridin-2-yl)-2-Hydroxypropyl)-3-Methylcinnoline-6-Carboxamide] | 0.0023 | 38
19 | COc1cc(C(=O)NC[C@](O)(c2cc(C(C)(C)O)c(F)c(-c3ccc(F)cc3)n2)C2CC2)cc2cc(C(F)F)nnc12 [compound 269] | 0.0012 | 20
20 | COc1cc(C(=O)NC[C@](O)(c2cc(C(C)(C)O)cc(-c3ccc(F)cc3)n2)C(C)(C)F)cc2cc(C)nnc12 [compound 306] | 0.001 | 50
21 | COc1cc(C(=O)NC[C@](O)(c2cc(C(C)(C)O)c(Cl)c(-c3ccc(F)cc3)n2)C2CC2)cc2cc(C)cnc12 [compound 205, (-)-N-{2-[5-Chloro-6-(4-Fluorophenyl)-4-(2-Hydroxypropan-2-yl)Pyridin-2-yl]-2-Cyclopropyl-2-Hydroxyethyl}-8-Methoxy-3-Methylquinoline-6-Carboxamide] | 0.00081 | 32
22 | Cc1cnc2c(OC3CC3)cc(C(=O)NC[C@](O)(c3nc(-c4ccc(F)cc4)c(Cl)c(C(C)(C)O)c3F)C(F)(F)F)cc2c1 [compound 221, (-)-N-{2-[5-Chloro-3-Fluoro-6-(4-Fluorophenyl)-4-(2-Hydroxypropan-2-yl)Pyridin-2-yl]-3,3,3-Trifluoro-2-Hydroxypropyl}-8-(Cyclopropyloxy)-3-Methylquinoline-6-Carboxamide] | 0.0093 | 65
23 | Cc1cnc2c(OC3CC3)cc(C(=O)NC[C@](O)(c3nc(-c4ccc(F)cc4)c(F)c(C(C)(C)O)c3F)C(F)(F)F)cc2c1 [compound 220, (-)(Cyclopropyloxy)-N-{2-[3,5-Difluoro-6-(4-Fluorophenyl)-4-(2-Hydroxypropan-2-yl)Pyridin-2-yl]-3,3,3-Trifluoro-2-Hydroxypropyl}-3-Methylquinoline-6-Carboxamide] | 0.0024 | 36
